In PMC12715805, “Screening apelin analogues and a small molecule agonist as effective cardiovascular therapeutics against reperfusion injury” (RSC Medicinal Chemistry, 2025):

Key:
[1] = G-protein-biased agonists; cited from earlier work
Description: The therapeutic potential of biased and unbiased agonists for the apelinR remains an area of active investigation, particularly regarding their effects on BP regulation. […] In contrast, the two non peptidic apelinR agonists, BMS-98622 ...

human apelinR = target: T1, human apelinR (Homo sapiens, UniProt P35414); assay: ApelinR radioligand binding experiment (competition with [125I]-(Nle11,Tyr13) apelin-13); settings: Fig. 1; membranes of CHO cells stably expressing hApelinR; 0.2 nM [125I]-(Nle11,Tyr13) apelin-13; 3 h at 20 °C; n = 4 to 6 independent experiments in duplicate; read-out: Binding affinity IC50 ± SEM
T1 construct: expressed in transfected cells; crude membrane preparations
T1 sequence (P35414 1-380): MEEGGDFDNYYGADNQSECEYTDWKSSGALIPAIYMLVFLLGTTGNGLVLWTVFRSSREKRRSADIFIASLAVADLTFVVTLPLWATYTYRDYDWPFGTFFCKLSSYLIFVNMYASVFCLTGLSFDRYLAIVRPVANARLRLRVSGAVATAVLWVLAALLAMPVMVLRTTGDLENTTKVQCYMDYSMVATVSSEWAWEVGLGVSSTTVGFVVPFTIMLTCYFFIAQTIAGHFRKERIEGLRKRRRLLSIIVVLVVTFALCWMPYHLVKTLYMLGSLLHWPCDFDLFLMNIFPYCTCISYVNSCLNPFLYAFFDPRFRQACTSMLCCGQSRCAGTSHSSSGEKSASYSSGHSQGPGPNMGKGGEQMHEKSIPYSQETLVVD
Protocol: Graphic is the compilation of n independent experiments performed in duplicate (n from 4 to 6). Error bars represent the SD of 4 to 6 independent experiments.
The reaction was stopped with cold 10 mM Hepes pH 7.5, 1 mM MgCl2 buffer and filtered on Whatman GF/C filters. After washing the filters, radioactivity was measured using a Wallac gamma counter.
APJ receptor agonist IC50 (nM)
Competition binding curves of different apelin receptor ligands. Membranes of CHO cells stably expressing the
concentrations of each ligand (from 1 pM to 10 µM).
in the absence of any unlabeled ligand. Graphic is a compilation of 4 independent experiments performed in duplicate.

[2] = test system: wild-type male mice (C57BL/6); assay: Blood pressure lowering assay in anesthetized mice; format: in vivo, mouse; settings: 0.5 μmol kg^−1 infusion during 5 min via jugular vein; anesthetized wild-type male C57BL/6 mice; compared to vehicle control
Protocol: The metabolically stable apelin analogues from each isoform, CbzPEG6–NMeLeu17A2 and NMeLeu13A2 along with the small molecule agonist, BMS-986224 (0.5 μmol kg^−1 infusion during 5 min for each compound), were tested for their BP lowering activity in anesthetized wild-type male mice (C57BL/6, 24–30 g). […] In contrast, the hypotensive effect of CbzPEG6–NMeLeu17A2 was observed immediately after infusion. This analogue reduced mean arterial pressure (MAP) by approximately 50% during the experiment, with the effect sustained for more than 30 minutes post-administration. Apelin can act on the endothelial layer of vasculature, leading to systemic changes in blood pressure by increasing the synthesis of nitric oxide (NO).[5] The effect of CbzPEG6–NMeLeu17A2 on […], which decreases the […] resistance by increasing eNOS activation and NO production through the activation of the PI3K/Akt signalling pathway on endothelial cells like other apelin analogues we tested in the previous studies.[5,11]
The blood pressure measurement and apelin injection method has been described in our previous research.[43] During the blood pressure testing, mice aged 12–14 weeks were anesthetized with 1.5% isoflurane in oxygen and monitored throughout the experiment. The blood pressure was measured using a PV loop catheter (model 1.2F, Transonic) […] into the left carotid artery. The monitor system (LabScribe 2.0. Scisense) recorded aortic blood pressure and heart rate. After a 20-minute baseline measurement, CbzPEG6–NMeLeu17A2, NMeLeu13A2, RI13, RI13A2, RI17, RI17A2, and BMS-986224 (0.5 μmol […] body weight) were diluted in saline and consistently infused for 5 min via the right jugular vein. For BMS-986224, 0.1% DMSO was added to saline to help with dilution. Blood pressure was continuously recorded for 60 minutes post-infusion.
3. Effects of APJ agonists on blood pressure
Figure S3. Different effects of apelin analog and receptor agonist on blood pressure and ischemia-reperfusion injury. A) the effect of CbzPEG6–NMeLeu17A2 (n=3) on mean arterial blood pressure (MAP), B) the effect of apelin 13 analog, NMeLeu13A2, on MAP (n=4). The effect of apelin 13 analog reverse enantiomers, C) RI13 (n=4) and D) RI13A2 (n=4), on MAP. The effect of apelin 17 reverse enantiomers, E) RI17 (n=4) and F) RI17A2 (n=4) on MAP. G) The effect of small molecule apelin receptor agonist BMS-986224 on blood pressure (n=4). The MAP recording between 50 and 60 minutes has been averaged and compared with their controls (placebo (n=4)). The vehicle for BMS-986224 is 0.1% DMSO (n=3). The arrow indicates the time when analogs were introduced. Values mean ±SEM and ****P<0.0001, compared to the control group.
(1 picture or pasted object on this page, not shown here)

[3] = test system: isolated mouse heart (ischemia–reperfusion injury); assay: Ex vivo Langendorff heart perfusion with ischemia–reperfusion; settings: 1 μM in perfusion buffer for first 10 min of reperfusion after 30 min ischemia; compared to placebo; one-way ANOVA, Dunnett
apelinR / human Gαi1 = target: T2, apelinR / human Gαi1 (Homo sapiens, UniProt P35414); assay: ebBRET Gαi1 activation; format: cell-based; settings: HEK293 cells transfected with apelinR, human Gαi1, Rap1GAP-RlucII, rGFP-CAAX; 10 min at 37 °C; mean ± SEM of 5 to 6 independent experiments; read-out: Gαi1 activation log EC50 (converted)
T2 sequence (P35414 1-380): T1 sequence (P35414 1-380)

apelinR / human Gαi2 = target: T3, apelinR / human Gαi2 (Homo sapiens, UniProt P35414); assay: ebBRET Gαi2 activation; format: cell-based; settings: HEK293 cells transfected with apelinR, human Gαi2, Rap1GAP-RlucII, rGFP-CAAX; 10 min at 37 °C; mean ± SEM of 5 to 6 independent experiments; read-out: Gαi2 activation log EC50 (converted)
T3 sequence (P35414 1-380): T1 sequence (P35414 1-380)

apelinR / β-arrestin1 = target: T4, apelinR / β-arrestin1 (Homo sapiens, UniProt P35414); assay: ebBRET β-arrestin1 recruitment; format: cell-based; settings: HEK293 cells transfected with apelinR, β-arrestin1-RlucII, rGFP-CAAX; 10 min at 37 °C; mean ± SEM of 5 to 6 independent experiments; read-out: β-arr1 recruitment log EC50 (converted)
T4 sequence (P35414 1-380): T1 sequence (P35414 1-380)

apelinR / β-arrestin2 = target: T5, apelinR / β-arrestin2 (Homo sapiens, UniProt P35414); assay: ebBRET β-arrestin2 recruitment; format: cell-based; settings: HEK293 cells transfected with apelinR, β-arrestin2-RlucII, rGFP-CAAX; 10 min at 37 °C; mean ± SEM of 5 to 6 independent experiments; read-out: β-arr2 recruitment log EC50 (converted)
T5 sequence (P35414 1-380): T1 sequence (P35414 1-380)

apelinR = target: apelinR; design: method as in PMID 33663236; settings: cited from earlier work
rats = settings: cited from earlier work
Description: Another avenue being investigated is the use of small molecule as agonists for the apelinR, such as, Bristol Myers Squibb's BMS-986224,[26,27] Amgen's AMG986,[28] and Davenport's CMF-019.[29] […] In contrast, the two non peptidic apelinR agonists, BMS-98622 ...

Q: Which “vasodilation (in words)” value [1] does the source give for `CCC(CC)n1c(Cc2cccs2)nc2cc(C(=O)N[C@H](CC(=O)O)CC(C)C)ccc21` [CMF-019] here?
A: The value was “demonstrated vasodilation”.

Q: With `CCOCc1nc(O)c(-c2nnc(Cc3ccc(Cl)cn3)o2)c(O)c1-c1c(OC)cccc1OC` [BMS-986224, reference compound] as the compound, how does the IC50 (human apelinR) read?
A: The IC50 was 16.4 ± 5.42 nM.

Q: What about the “hypotensive effect (BP lowering activity, in words)” value [2] of the same compound?
A: The value was “no hypotensive effect”.

Q: And the “cardioprotective effect / cardiac function recovery after ischemia–reperfusion (LVDP, RPP, max dP/dt, min dP/dt; in words)” value [3]?
A: The value was “failed to show significance in cardiac function recovery”.

Q: And the EC50 (apelinR / human Gαi1)?
A: The EC50 was 0.102 nM.

Q: And the EC50 (apelinR / human Gαi2)?
A: The EC50 was 0.11 nM.

Q: And the EC50 (apelinR / β-arrestin1)?
A: Its EC50 is 10.7 nM.

Q: And the EC50 (apelinR / β-arrestin2)?
A: The EC50 was 8.91 nM.

Q: What about the Kd (apelinR) of the same compound?
A: Its Kd is 0.3 nM.

Q: And the “change in BP in a myocardial infarction (MI) rat model and a hypertension-induced cardiac dysfunction rat model (in words)” value (rats; MI rat model, hypertension-induced cardiac dysfunction rat model)?
A: The value was “do not induce any change in BP”.

Q: And the “BP in anesthetized normotensive rats (in words)” value (rats; anesthetized normotensive rats, at the beginning of the infusion)?
A: The value was “slight but significant decrease in BP”.

Q: And the “cardiac effects and blood pressure in a rat pressure–volume loop model (in words)” value (rats; rat pressure–volume loop model)?
A: The value was “positive cardiac effects without significantly lowering blood pressure”.
